{
  "source": "patent US10183039B2",
  "about": "“Methods for the production of collagen IV” (Vanderbilt University, priority 2013, dated 2019)",
  "key": {"[1]": {"system": "collagen IV NC1 hexamer", "assay": "Purified peroxidases reacted with uncrosslinked NC1 hexamer and H2O2", "type": "biochemical, mouse", "details": "16 nM enzyme, 500 nM NC1 hexamer, 10 μM H2O2, 1×PBS", "procedure": "(§1) (FIG. 3A) SDS-PAGE of reactions consisting of 16 nM purified human peroxidasin (PXDN), 500 nM monomeric NC1 hexamer (3 μM potential crosslinks) and 10 μM H2O2 in 1×PBS. Control reactions without H2O2 or in the presence of the peroxidase inhibitor phloroglucinol (PHG; 50 μM) were also conducted. D represents crosslinked dimeric NC1 subunits, and M denotes uncrosslinked monomeric subunits. MW, molecular weight. (FIG. 3B) Coomassie blue-stained gel after SDS-PAGE of collagen IVNC1 hexamer is shown to illustrate relative amounts of sulfilimine-crosslinked dimeric (D) and uncrosslinked monomeric (M) subunits after incubation of uncrosslinked PFHR-9 basement membranes in varying buffer halide concentrations (Br— or Cl— as K+ salt) with or without 1 mM H2O2. (FIG. 3C) PXDN-mediated hypohalous acid (HOX) production expressed as nmol hypohalous acid generated per nmol enzyme per min, measured in 1×PBS plus 100 μM NaBr. Values represent mean±s.e.m. (n=3). (FIG. 3D) HOCl production measured directly in 1×PBS without added Br—. Values denote mean±s.e.m. (n=4). […] (FIG. 3E) HOX production, measured in nmol HOX generated per nmol enzyme per min for myeloperoxidase (MPO), eosinophil peroxidase (EPO) or LPO in 1×PBS plus 100 μM NaBr. Values represent mean±s.e.m. (n=3).\nPHG, phloroglucinol; MW, molecular weight.\nIf peroxidasin uses hypohalous acids as intermediates to form sulfilimine bonds, these intermediates should recapitulate the reaction when directly added to purified, uncrosslinked collagen IV NC1 hexamer. […] Alternatively, other peroxidasesis provided to form reactive hypohalous acids."}, "[2]": {"assay": "Hypohalous acid production by peroxidases (taurine haloamine trapping)", "type": "biochemical", "details": "for hypohalous acid formation: 1×PBS plus 100 μM NaBr or without added Br—; for HOCl production: 1×PBS without added Br— (FIG. 3D)", "procedure": "as §1\nHypohalous acids were trapped as stable taurine haloamines, which oxidize tetramethylbenzidine to yield a colorimetric measure of hypohalous acid concentration and production (Dypbukt et al., 2005).\nAnimal heme peroxidases, such as peroxidasin, myeloperoxidase, eosinophil peroxidase and lactoperoxidase, catalyze oxidative reactions using distinct halogenation and peroxidase cycles (Obinger, 2006). Both begin with hydrogen peroxide oxidation of the prosthetic heme iron to form an intermediate denoted compound I (Obinger, 2006). Compound I may oxidize halides into their respective hypohalous acids (or related oxidants in equilibrium), which may directly or indirectly halogenate susceptible moieties. Alternatively, compound I undergoes sequential reduction to form single electron-free radicals of energetically favorable substrates in the peroxidase cycle. Both pathways eventually regenerate reduced, native enzyme (Obinger, 2006). To determine whether peroxidasin forms sulfilimine bonds using a halogenation cycle, the inventors first tested whether peroxidasin crosslinks collagen IV in the absence of halides."}, "[3]": {"system": "PFHR-9 cells", "assay": "Collagen IV sulfilimine crosslink formation in PFHR-9 cell culture (NC1 hexamer, SDS-PAGE)", "type": "cell-based, mouse", "details": "inhibitor present during cellular deposition of basement membrane; FIG. 2A: PHG 50 μM, MMI 1 mM, KI 10 mM, 3-AT 10 mM, BAPN 500 μM, putrescine 2.5 mM"}, "[4]": {"target": "T1, thyroid peroxidase (Homo sapiens, UniProt P07202)", "T1 sequence (P07202 19-933)": "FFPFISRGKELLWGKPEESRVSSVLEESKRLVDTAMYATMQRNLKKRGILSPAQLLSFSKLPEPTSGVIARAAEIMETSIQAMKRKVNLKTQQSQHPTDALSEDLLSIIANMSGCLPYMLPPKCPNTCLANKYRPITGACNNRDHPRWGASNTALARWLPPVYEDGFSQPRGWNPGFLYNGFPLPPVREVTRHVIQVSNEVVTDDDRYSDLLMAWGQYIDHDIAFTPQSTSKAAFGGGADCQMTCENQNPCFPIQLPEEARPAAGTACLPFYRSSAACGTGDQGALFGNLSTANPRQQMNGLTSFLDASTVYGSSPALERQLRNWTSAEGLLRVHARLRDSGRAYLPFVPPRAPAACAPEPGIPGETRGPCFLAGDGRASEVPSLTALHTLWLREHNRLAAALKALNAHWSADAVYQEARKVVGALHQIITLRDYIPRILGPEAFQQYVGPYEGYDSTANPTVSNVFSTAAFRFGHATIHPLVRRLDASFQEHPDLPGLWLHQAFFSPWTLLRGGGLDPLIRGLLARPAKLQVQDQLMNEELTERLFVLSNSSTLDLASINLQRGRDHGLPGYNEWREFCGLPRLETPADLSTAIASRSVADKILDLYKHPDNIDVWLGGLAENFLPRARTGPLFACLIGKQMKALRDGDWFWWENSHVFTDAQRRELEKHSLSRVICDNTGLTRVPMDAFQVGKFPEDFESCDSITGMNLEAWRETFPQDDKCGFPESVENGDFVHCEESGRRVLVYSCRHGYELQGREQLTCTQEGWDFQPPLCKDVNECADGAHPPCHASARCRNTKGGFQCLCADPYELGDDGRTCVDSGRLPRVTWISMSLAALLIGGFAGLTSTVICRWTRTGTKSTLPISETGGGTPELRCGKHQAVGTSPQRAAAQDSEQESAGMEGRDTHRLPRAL", "details": "cited from earlier work"}, "[5]": {"target": "T2, myeloperoxidase (Homo sapiens, UniProt P05164)", "T2 sequence (P05164 49-745)": "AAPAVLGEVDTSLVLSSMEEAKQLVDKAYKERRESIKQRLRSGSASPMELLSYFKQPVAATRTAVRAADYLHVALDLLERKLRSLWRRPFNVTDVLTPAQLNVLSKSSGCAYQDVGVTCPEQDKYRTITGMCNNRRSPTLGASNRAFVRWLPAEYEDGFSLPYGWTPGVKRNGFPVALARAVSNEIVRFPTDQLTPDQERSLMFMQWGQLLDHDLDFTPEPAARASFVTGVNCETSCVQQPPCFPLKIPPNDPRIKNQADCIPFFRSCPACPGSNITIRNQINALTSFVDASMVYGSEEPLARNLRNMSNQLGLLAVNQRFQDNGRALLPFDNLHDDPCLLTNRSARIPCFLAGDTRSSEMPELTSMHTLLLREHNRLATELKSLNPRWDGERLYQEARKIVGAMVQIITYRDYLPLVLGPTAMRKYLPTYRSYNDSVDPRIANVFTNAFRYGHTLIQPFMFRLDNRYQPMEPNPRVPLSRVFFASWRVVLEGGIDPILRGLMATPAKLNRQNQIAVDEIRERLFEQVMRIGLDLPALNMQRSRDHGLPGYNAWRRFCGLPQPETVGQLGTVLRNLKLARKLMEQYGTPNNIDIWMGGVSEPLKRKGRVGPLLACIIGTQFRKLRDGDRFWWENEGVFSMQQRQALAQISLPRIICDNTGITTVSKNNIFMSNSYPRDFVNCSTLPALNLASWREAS", "details": "cited from earlier work"}, "[6]": {"target": "horseradish peroxidase (HRP) (Armoracia rusticana, UniProt P00433)", "sequence (P00433 31-338 limits assumed)": "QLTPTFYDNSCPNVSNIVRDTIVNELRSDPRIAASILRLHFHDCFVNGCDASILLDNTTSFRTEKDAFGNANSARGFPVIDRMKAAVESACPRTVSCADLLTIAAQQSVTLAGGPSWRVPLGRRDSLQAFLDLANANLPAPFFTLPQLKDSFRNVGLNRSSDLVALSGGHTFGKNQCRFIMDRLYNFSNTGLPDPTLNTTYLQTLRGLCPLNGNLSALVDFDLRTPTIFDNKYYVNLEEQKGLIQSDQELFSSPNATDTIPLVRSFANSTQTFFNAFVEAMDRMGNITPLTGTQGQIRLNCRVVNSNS", "details": "with H2O2; cited from earlier work"}, "[7]": {"system": "transglutaminase", "details": "Candi et al., 1995; cited from earlier work"}, "[8]": {"target": "T3, Lysyl oxidase (Bos taurus, UniProt P33072)", "T3 sequence (P33072 170-418)": "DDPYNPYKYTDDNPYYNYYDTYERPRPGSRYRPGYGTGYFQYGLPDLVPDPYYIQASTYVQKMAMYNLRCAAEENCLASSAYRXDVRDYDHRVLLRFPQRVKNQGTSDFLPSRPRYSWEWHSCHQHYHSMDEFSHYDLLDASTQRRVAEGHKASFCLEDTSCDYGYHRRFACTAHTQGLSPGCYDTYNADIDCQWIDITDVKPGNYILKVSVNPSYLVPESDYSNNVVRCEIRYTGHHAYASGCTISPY", "details": "Tang et al., 1983; cited from earlier work"}, "[9]": {"system": "PFHR-9 basement membrane collagen IV", "assay": "HEK293 cell overlay on uncrosslinked PFHR-9 collagen IV networks", "type": "cell-based, mouse", "details": "HEK293 cells plated on uncrosslinked PFHR-9 basement membrane; PHG 50 μM where present", "procedure": "FIGS. 5A-D—Peroxidasin uniquely crosslinks native collagen IV networks. (FIG. 5A) Experimental design of ‘overlay’ experiments. PFHR-9 cells were grown in the presence of phloroglucinol (PHG; 50 μM) to deposit uncrosslinked collagen IV (Col IV) networks. The cells were then removed, and the basement membrane was extracted with 4 M guanidine (Gdn) to inactivate endogenous peroxidasin. Cells stably transfected with human peroxidasin (PXDN) or untransfected HEK293 cells (WT HEK) were plated on top of the PFHR9 basement membrane, which was subsequently analyzed for collagen IV crosslink content. (FIG. 5B) Collagen IV-sulfilimine bond formation in the indicated experimental conditions as shown by stained SDS-PAGE gel. Two (WT HEK cells) or three (PXDN, with or without PHG) out of five independent experiments are shown. MW, molecular weight. (FIG. 5C) Coomassie blue-stained gel of collagen IVNC1 hexamers isolated from uncrosslinked PFHR-9 basement membrane overlaid with HEK293T cells transiently transfected with human peroxidasin cDNA, mouse myeloperoxidase cDNA (MPO), mouse lactoperoxidase cDNA (LPO) or empty vector (Mock). […]\nPFHR-9 cells were grown in the presence of 50 μM phloroglucinol to produce noncrosslinked collagen IV. […] Plates were incubated for 24-48 h, and collagen IV was analyzed for NC1 crosslink formation. […]"}, "[10]": {"system": "Drosophila eggs", "details": "PHG in the food, excess dietary (100 μM) Br^−", "quoted_text": "All eggs deposited in a quadrant of a 55 mm laying cage were moved to a fresh phytagel surface and oriented with dorsal appendages facing the surface for quantitation of the aspect ratio which is calculated by dividing the anterior-posterior axis length by the egg's diameter. Eggs were collected after 168 hours of exposure to standard or experimental diets.\n(FIG. 18B) Br^− concentration effect on egg aspect ratio, in single age-matched cohort of w^1118 flies, over time. Vertical axis represents mean aspect ratio (±S.E.M). […] Inset plotted as mean±95% C.I. and significance calculated with the Kruskall-Wallis test. […] PHG was administered in the food. All wild-type (w^1118) mothers were from the same cohort and reared identically, then divided into sub-cohorts for exposure to the indicated experimental diet."}, "[11]": {"target": "peroxidase (Drosophila melanogaster, UniProt Q9VZZ4)", "sequence (Q9VZZ4 24-1527)": "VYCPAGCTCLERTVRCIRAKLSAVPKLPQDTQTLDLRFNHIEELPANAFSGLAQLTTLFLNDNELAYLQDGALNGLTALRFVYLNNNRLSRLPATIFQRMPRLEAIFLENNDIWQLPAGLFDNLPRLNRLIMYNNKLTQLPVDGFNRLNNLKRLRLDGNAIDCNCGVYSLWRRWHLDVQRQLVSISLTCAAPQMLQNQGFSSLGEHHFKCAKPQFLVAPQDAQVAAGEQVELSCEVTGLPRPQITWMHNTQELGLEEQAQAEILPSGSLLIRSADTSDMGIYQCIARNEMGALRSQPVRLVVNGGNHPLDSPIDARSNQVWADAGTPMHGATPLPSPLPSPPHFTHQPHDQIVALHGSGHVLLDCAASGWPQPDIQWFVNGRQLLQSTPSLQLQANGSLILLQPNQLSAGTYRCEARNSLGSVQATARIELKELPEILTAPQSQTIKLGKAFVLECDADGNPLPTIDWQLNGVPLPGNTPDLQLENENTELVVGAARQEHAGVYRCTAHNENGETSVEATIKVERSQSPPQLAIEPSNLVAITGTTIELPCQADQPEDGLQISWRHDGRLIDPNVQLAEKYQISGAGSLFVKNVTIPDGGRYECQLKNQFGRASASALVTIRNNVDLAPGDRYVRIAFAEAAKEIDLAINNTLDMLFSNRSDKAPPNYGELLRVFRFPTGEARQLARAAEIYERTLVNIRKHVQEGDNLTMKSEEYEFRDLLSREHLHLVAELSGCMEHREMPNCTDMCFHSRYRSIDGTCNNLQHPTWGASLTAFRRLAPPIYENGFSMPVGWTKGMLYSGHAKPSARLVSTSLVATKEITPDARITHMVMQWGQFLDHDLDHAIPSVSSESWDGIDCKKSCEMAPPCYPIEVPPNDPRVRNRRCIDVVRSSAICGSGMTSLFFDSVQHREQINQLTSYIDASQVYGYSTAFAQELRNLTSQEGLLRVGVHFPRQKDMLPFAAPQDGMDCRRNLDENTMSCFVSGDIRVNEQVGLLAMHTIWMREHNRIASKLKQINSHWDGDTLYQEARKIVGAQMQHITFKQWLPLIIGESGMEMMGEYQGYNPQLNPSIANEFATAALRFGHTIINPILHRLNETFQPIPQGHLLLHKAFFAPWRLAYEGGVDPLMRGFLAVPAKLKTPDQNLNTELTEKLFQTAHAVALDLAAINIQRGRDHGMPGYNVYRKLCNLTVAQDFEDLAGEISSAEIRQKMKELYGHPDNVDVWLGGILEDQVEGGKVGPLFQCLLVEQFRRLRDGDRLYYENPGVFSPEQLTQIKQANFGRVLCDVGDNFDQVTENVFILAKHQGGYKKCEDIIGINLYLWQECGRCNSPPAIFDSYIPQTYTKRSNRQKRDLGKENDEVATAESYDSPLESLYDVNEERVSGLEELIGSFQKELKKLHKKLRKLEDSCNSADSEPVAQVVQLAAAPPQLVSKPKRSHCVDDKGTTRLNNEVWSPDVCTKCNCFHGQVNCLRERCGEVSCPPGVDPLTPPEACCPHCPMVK", "details": "Nelson et al., 1994; read-out: half-maximum inhibitory concentration (IC50); cited from earlier work"}},
  "note": "Read-outs that look alike come from different tables or passages of the source.",
  "data": [
    {"compound": "eosinophil peroxidase: animal heme peroxidase used as comparator", "values": [
      {"measurement": "formation of sulfilimine crosslinks in NC1 hexamer", "setting": "[1]", "result": "formed sulfilimine crosslinks in collagen IV"},
      {"measurement": "hypohalous acid formation", "setting": "[2]", "result": "primarily yielded hypobromous acid"}
    ]},
    {"compound": "Nc1nc[nH]n1", "note": "[3-aminotriazole]", "values": [
      {"measurement": "formation of collagen IV crosslinks", "setting": "[3]", "result": "prevented formation of collagen IV crosslinks"},
      {"measurement": "inhibition of thyroid peroxidase", "setting": "[4]; 2 mM", "result": "near-complete inhibition"},
      {"measurement": "inhibition of myeloperoxidase", "setting": "[5]; 10 mM", "result": "near-complete inhibition"}
    ]},
    {"compound": "[N-]=[N+]=[N-]", "note": "[azide]", "values": [
      {"measurement": "Ki", "setting": "[6]", "result": 1470, "unit": "µM"},
      {"measurement": "kinact", "setting": "[6]", "result": 0.69, "unit": "min⁻¹"}
    ]},
    {"compound": "NCCCCN", "note": "[putrescine]", "values": [
      {"measurement": "formation of collagen IV crosslinks", "setting": "[3]", "result": "had no effect"},
      {"measurement": "Km", "setting": "[7]", "result": "26 to 847", "unit": "µM"}
    ]},
    {"compound": "lactoperoxidase: animal heme peroxidase used as comparator", "values": [
      {"measurement": "formation of sulfilimine crosslinks in NC1 hexamer", "setting": "[1]", "result": "poorly catalyzed crosslink formation"},
      {"measurement": "hypohalous acid formation", "setting": "[2]", "result": "formed neither hypohalous acid"},
      {"measurement": "HOCl production", "setting": "[2]", "result": "not statistically different from zero"}
    ]},
    {"compound": "N#CCCN", "note": "[β-aminopropionitrile]", "values": [
      {"measurement": "formation of collagen IV crosslinks", "setting": "[3]", "result": "had no effect"},
      {"measurement": "IC50", "setting": "[8]", "result": "3 to 8", "unit": "µM"}
    ]},
    {"compound": "peroxidasin: heterologously expressed and purified human peroxidasin, a basement membrane heme peroxidase", "values": [
      {"measurement": "formation of sulfilimine crosslinks in NC1 hexamer", "setting": "[1]", "result": "robust formation of crosslinked dimeric subunits"},
      {"measurement": "hypohalous acid formation", "setting": "[2]", "result": "formed hypobromous and hypochlorous acid at modest rates with a preference for bromide"},
      {"measurement": "HOCl production", "setting": "[2]", "result": "significantly greater than that mediated by lactoperoxidase"},
      {"measurement": "crosslinking of native collagen IV network by overlaid cells", "setting": "[9]", "result": "Only peroxidasin formed sulfilimine bonds in collagen IV"}
    ]},
    {"compound": "Oc1cc(O)cc(O)c1", "note": "[phloroglucinol, reference compound]", "values": [
      {"measurement": "formation of collagen IV crosslinks", "setting": "[3]", "result": "prevented formation of collagen IV crosslinks"},
      {"measurement": "crosslinking of native collagen IV network by overlaid cells", "setting": "[9]", "result": "failed to crosslink collagen IV"},
      {"measurement": "egg aspect ratio under peroxidasin inhibition", "setting": "[10]", "result": "dose-dependent suppression in egg aspect ratio"},
      {"measurement": "egg aspect ratio under peroxidasin inhibition", "setting": "[10]; listed as PHG", "result": "dose-dependent reduction in the exaggerated egg elongation"},
      {"measurement": "IC50", "setting": "[11]", "result": 0.5, "unit": "µM"}
    ]},
    {"compound": "Cn1cc[nH]c1=S", "note": "[methimazole]", "values": [
      {"measurement": "formation of collagen IV crosslinks", "setting": "[3]", "result": "prevented formation of collagen IV crosslinks"},
      {"measurement": "IC50", "setting": "[4]", "result": 0.8, "unit": "µM"},
      {"measurement": "inhibition of myeloperoxidase", "setting": "[5]; 3 mM", "result": 70, "unit": "%"}
    ]}
  ]
}
